In publication PMC12606464, “Investigating NFE2L1 activators for targeted protein aggregate clearance: a follow-up study” (RSC Medicinal Chemistry, 2025):

Test system: NFE2L1 pathway (DDI2-dependent) in HCT116 cells
Test: 3×PSMA4-ARE-LUC reporter in HCT116 WT and DDI2 knockout cells
Assay type: cell-based, human
Experimental: Fig. 1 (A) Targeted library screening of RUN compounds using the 3×PSMA4-ARE-LUC dual reporter assay in HEK293 cells. Cells were exposed to RUN compounds (5 μM) for 16 hours, and luciferase activity was measured. Data are presented as the mean ± SD from three independent experiments (n = 3). Results are shown as a fold change in luminescence relative to DMSO-treated cells. Selected hit compounds are highlighted in distinct colours. (B) RUN-89 specifically activates the NFE2L1 pathway. The DDI2 knockout (KO) and parental (WT) HCT116 cells were transfected with the 3×PSMA4-ARE-LUC reporter and treated with 0.5 μM bortezomib (BTZ) and 5 μM RUN-89 for 16 hours. Data are presented as the Geomean ± GeoSD of three independent experiments (n = 3). Statistical analysis was performed on log2-transformed values using two-way repeated-measures ANOVA followed by Šídak's multiple comparison test. (C) RUN-89 selectively triggers downstream signaling events associated with NFE2L1 gene expression. HEK293 cells were transfected with lipid nanoparticles (LNPs) carrying siRNAs targeting NFE2L1 or NFE2L2. LNPs formulated with non-targeting siRNA served as a negative control. Following 24 hours of incubation, cells were treated with 7.5 μM RUN-89 or DMSO (vehicle) for an additional 16 hours. Expression of the proteasomal subunit gene PSMC4 was then quantified by RT-qPCR. Data are shown as the Geomean ± GeoSD from three independent biological replicates (n = 3). Log2-transformed data were analyzed using two-way repeated-measures ANOVA with the Geisser–Greenhouse correction, followed by Tukey's multiple comparison test with individual variances computed for each comparison. Additional results for NFE2L1, NFE2L2, PSMB7, and PSMD12 are presented in SI Fig. S10.
To clarify whether the representative compound RUN-89 activates the NFE2L1-specific luciferase reporter independently of the KEAP1–NFE2L2 pathway, we used the 3×PSMA4-ARE-LUC dual reporter in previously published DDI2 knockout HCT116 cells (from ATCC CCL-247 (RRID:CVCL_0291)), in which the protease essential for NFE2L1 activation is disrupted. […] These findings indicate that RUN-89 activates the reporter construct through NFE2L1.
2 Biology Experimental Procedures […]
Cell lines were sourced from the ATCC (USA) and/or ECACC (UK), namely HCT116 (human colorectal carcinoma), ATCC CCL-247 (RRID:CVCL_0291), HEK-293 (human embryonic kidney), ATCC CRL-1573 (RRID:CVCL_0045), SH-SY5Y (human neuroblastoma), ATCC CRL-2266 (RRID:CVCL_0019). The characteristics of DDI2 knockout cells derived from HCT116 cells have been described previously (Sedlacek et al., 2025). All cell lines were tested for mycoplasma contamination. Most of the cell lines were cultured in Dulbecco's Modified Eagle Medium (DMEM) enriched with 10% fetal bovine serum (FBS) and 2 mM L-glutamine, under standard conditions of 37 °C with 5% CO₂. DNA transfection was performed with Lipofectamine 2000, following the manufacturer's instructions. […]
alamarBlue assay according to the standard protocol.(1)
2.3 Dual luciferase phenotypic assays
HEK293-derived cells stably expressing the 3×PSMA4-ARE-Luc reporter were maintained at low to mid passage numbers before use. For each experiment, cells were transiently transfected with the pRL-TK Renilla luciferase plasmid using Lipofectamine 2000.
Approximately 5–6 hours post-transfection, cells were seeded into plate format according to the experiment (384-well plate mostly). On the following day, cells were treated with the indicated test compounds or DMSO vehicle control for 16 hours (unless otherwise specified).
After treatment, cells were lysed and luciferase activities were quantified using the Dual-Luciferase® Reporter Assay System according to the manufacturer’s instructions and established protocols.(2, 3) For assays using the CMV-XBP-Gluc construct encoding Gaussia […]

COc1ccc(/C=C2\CC(NC(=O)C3CCCC3)C/C(=C\c3ccc(OC)c(OC)c3)C2=O)cc1OC (stereo not shown) [RUN-89]
Mean log2-transformed reporter fold change, HCT116 KO 04 (DDI2-/- clone KO 04, 0.5 μM BTZ or 5 μM RUN-89, 16 h, DMSO = 0): 0.09237 | Mean log2-transformed reporter fold change, HCT116 KO 11 (DDI2-/- clone KO 11, 0.5 μM BTZ or 5 μM RUN-89, 16 h, DMSO = 0): 0.4773 | Reporter activity in DDI2-deficient cells (DDI2 knockout HCT116, in contrast to wild-type cells): neither the proteasome inhibitor bortezomib nor RUN-89 induced reporter activity | Mean log2-transformed reporter fold change, HCT116 WT (WT (DDI2+/+), 0.5 μM BTZ or 5 μM RUN-89, 16 h, DMSO = 0): 1.7
